Experimental findings from patent publication US10414811B2, “Protease-resistant lipidated GLP-1 analogs” (MEDIMMUNE LIMITED, priority 2015, dated 2019) are described below.

Like-named read-outs stand apart in the source and are kept apart here. Numbered stars: 1 amine (or outer) side, 2 acyl side, 3 side chain; on linkers, the order of the positions; unused ones are H or OH. Square brackets hold non-standard residues; d marks the D form. Side chains are listed from the residue outwards. Peptide text beside a SMILES is read from it. * marks the point of attachment. γGlu = O=C(O)[C@H](CCC(=O)[*:2])N[*:1]; Palmitoyl = CCCCCCCCCCCCCCCC(=O)*; αMeF = C[C@](N)(Cc1ccccc1)C(=O)O; αMeK = C[C@](N)(CCCCN)C(=O)O; αMeS = C[C@](N)(CO)C(=O)O; Aib = CC(C)(N)C(=O)O

Assay type in all cases: cell-based
Test [1] deals with T1, human glucagon receptor (GCGR) (Homo sapiens, UniProt P47871).
T1 construct: expressed in transfected cells
In words: cAMP assay, human GCGR cells. The settings on record: cAMP assay. The essentials: (§1)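 Peptide-stimulated cAMP measured by two-step HTRF after a 30 min room-temperature incubation with receptor-expressing cells (hGLP-1R, hGIPR at 1×10^5 cells/ml; hGCGR at 2×10^5 cells/ml). Duplicate dilutions; EC50 from 4-parameter logistic fit of % Delta F.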
In general terms: Cyclic AMP is a second messenger, typically raised through Gs and lowered through Gi signalling.

A further test addresses T2, GLP-1R (INS1e assay) (Rattus norvegicus, UniProt P32301).
T2 construct: endogenous in cells; host or cells: INS-1E cells
T2 sequence (P32301 22-463): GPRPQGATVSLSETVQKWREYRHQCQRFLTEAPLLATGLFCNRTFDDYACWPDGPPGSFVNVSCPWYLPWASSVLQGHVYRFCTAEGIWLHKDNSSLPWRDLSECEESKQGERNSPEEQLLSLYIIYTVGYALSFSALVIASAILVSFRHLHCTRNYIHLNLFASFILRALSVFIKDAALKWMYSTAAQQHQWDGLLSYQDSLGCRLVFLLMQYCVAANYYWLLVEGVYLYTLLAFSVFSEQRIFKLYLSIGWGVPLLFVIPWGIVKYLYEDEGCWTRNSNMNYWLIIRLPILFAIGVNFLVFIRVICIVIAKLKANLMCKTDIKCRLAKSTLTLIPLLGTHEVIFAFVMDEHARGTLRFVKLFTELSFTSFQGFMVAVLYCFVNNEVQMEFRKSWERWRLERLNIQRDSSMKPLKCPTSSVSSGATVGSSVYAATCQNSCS
Put plainly: INS1e assay, cAMP activity at GLP-1R. The note with it: mono-lipidated peptides. The essentials: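 cAMP was quantified by two-step HTRF, using anti-cAMP cryptate donor and cAMP-d2 acceptor, each diluted 1/20 in conjugate and lysis buffer. EC50 values of the synthetic peptides were derived from the cAMP readout.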

In test [2] the target is T3, human GLP-1 receptor (GLP-1R) (Homo sapiens, UniProt P43220).
T3 construct: expressed in transfected cells
In words: cAMP assay, human GLP-1R cells. The method in brief:
as §1

Test [3] has as its target T4, human glucose-dependent insulinotropic peptide receptor (GIPR) (Homo sapiens, UniProt P48546).
T4 construct: expressed in transfected cells
T4 sequence (P48546 22-466): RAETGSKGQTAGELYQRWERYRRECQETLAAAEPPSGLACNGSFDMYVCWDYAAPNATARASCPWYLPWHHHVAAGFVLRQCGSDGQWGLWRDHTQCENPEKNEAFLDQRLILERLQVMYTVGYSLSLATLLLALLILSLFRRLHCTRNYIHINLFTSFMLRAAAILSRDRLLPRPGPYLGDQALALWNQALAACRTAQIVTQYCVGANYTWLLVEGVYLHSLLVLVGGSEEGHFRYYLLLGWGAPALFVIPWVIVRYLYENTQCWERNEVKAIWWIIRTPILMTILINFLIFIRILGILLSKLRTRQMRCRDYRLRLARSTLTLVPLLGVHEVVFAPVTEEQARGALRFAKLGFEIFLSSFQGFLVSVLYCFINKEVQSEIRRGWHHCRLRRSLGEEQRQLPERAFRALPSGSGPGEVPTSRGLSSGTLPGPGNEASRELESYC
In words: cAMP assay, human GIPR cells. The note with it: cAMP assay. The essentials: as §1

[4] abbreviates: first determination (n1), read-out: Primary assay EC50 Gluc-R (n1).
Setting [5] is: second determination (n2), read-out: Primary assay EC50 Gluc-R (n2).
The mark [6] stands for this setting: mean of n1 and n2, read-out: INS1e assay EC50 Mean pM GLP-1R.
Where [7] appears, read: replicate n1, read-out: INS1e assay EC50 GLP-1R n1.
Setting [8] is: replicate n2, read-out: INS1e assay EC50 GLP-1R n2.
The mark [9] stands for this setting: cAMP assay, first determination (n1), read-out: Primary assay EC50 GLP-1R n1.
Where [10] appears, read: cAMP assay, second determination (n2), read-out: Primary assay EC50 GLP-1R n2.
[11] abbreviates: mean of n1 and n2, read-out: Mean pM GLP-1R.
[12] abbreviates: first determination (n1), read-out: Primary assay EC50 GIP-R (n1).
[13] abbreviates: second determination (n2), read-out: Primary assay EC50 GIP-R (n2).

T1 sequence (P47871 26-477): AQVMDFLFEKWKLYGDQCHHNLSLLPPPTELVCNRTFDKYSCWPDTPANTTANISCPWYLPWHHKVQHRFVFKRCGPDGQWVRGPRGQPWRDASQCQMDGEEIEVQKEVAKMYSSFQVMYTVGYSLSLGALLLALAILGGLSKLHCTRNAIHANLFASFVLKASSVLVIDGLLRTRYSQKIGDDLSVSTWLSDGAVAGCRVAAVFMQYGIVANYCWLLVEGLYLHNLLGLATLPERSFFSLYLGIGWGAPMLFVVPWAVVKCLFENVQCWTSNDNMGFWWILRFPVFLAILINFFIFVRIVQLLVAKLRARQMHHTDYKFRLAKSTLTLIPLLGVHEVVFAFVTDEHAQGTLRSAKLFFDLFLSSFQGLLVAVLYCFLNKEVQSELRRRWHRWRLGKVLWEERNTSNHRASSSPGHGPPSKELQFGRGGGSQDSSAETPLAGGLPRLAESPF
T3 sequence (P43220 24-463): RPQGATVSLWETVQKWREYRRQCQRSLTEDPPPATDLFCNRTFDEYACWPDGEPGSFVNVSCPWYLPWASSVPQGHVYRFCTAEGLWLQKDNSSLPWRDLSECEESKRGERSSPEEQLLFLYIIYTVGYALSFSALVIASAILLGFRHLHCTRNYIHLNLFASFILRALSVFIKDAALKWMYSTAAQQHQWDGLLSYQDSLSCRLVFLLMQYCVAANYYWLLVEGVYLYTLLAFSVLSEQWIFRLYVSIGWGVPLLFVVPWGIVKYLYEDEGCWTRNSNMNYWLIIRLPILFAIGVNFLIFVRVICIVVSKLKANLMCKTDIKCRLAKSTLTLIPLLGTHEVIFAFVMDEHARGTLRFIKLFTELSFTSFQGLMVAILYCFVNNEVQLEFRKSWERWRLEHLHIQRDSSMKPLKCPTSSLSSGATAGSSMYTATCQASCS

For `CCCCCCCCCCCCCCCC(=O)N[C@@H](CCC(=O)NCCCC[C@H](NC(=O)[C@@H](NC(=O)[C@@H](NC(=O)[C@](C)(Cc1ccccc1)NC(=O)[C@H](C)NC(=O)[C@@H](NC(=O)[C@](C)(Cc1ccccc1)NC(=O)[C@H](CCC(=O)O)NC(=O)[C@](C)(CCCCN)NC(=O)[C@H](C)NC(=O)[C@H](C)NC(=O)[C@H](CCC(=O)O)NC(=O)CNC(=O)[C@H](CCC(=O)O)NC(=O)[C@H](CC(C)C)NC(=O)[C@](C)(Cc1ccccc1)NC(=O)[C@H](CO)NC(=O)[C@](C)(CO)NC(=O)[C@@H](NC(=O)[C@H](CC(=O)O)NC(=O)[C@H](CO)NC(=O)[C@@H](NC(=O)[C@](C)(Cc1ccccc1)NC(=O)[C@H](CO)NC(=O)CNC(=O)[C@H](CCC(=O)O)NC(=O)C(C)(C)NC(=O)[C@@H](N)Cc1c[nH]cn1)[C@@H](C)O)C(C)C)[C@@H](C)CC)C(C)C)C(C)C)C(=O)NCC(=O)NCC(N)=O)C(=O)O` [compound 72], the EC50 is ≥ 28 nM in test [1] (setting [4]); ≥ 28 nM in test [1] (setting [5]); 6160 pM at GLP-1R (INS1e assay) (setting [6]); 4260 pM at GLP-1R (INS1e assay) (setting [7]); 8070 pM on GLP-1R (INS1e assay) (setting [8]); 46 pM in test [2] (setting [9]). The EC50 is 52 pM in test [2] (setting [10]), 49 pM in test [2] (setting [11]), ≥ 28 nM in test [3] (setting [12]) and ≥ 28 nM in test [3] (setting [13]).
`CCCCCCCCCCCCCCCC(=O)N[C@@H](CCC(=O)NCCCC[C@H](NC(=O)[C@](C)(Cc1ccccc1)NC(=O)[C@H](C)NC(=O)[C@@H](NC(=O)[C@](C)(Cc1ccccc1)NC(=O)[C@H](CCC(=O)O)NC(=O)[C@](C)(CCCCN)NC(=O)[C@H](C)NC(=O)[C@H](C)NC(=O)[C@H](CCC(=O)O)NC(=O)CNC(=O)[C@H](CCC(=O)O)NC(=O)[C@H](CC(C)C)NC(=O)[C@](C)(Cc1ccccc1)NC(=O)[C@H](CO)NC(=O)[C@](C)(CO)NC(=O)[C@@H](NC(=O)[C@H](CC(=O)O)NC(=O)[C@H](CO)NC(=O)[C@@H](NC(=O)[C@](C)(Cc1ccccc1)NC(=O)[C@H](CO)NC(=O)CNC(=O)[C@H](CCC(=O)O)NC(=O)C(C)(C)NC(=O)[C@@H](N)Cc1c[nH]cn1)[C@@H](C)O)C(C)C)[C@@H](C)CC)C(=O)N[C@H](C(=O)N[C@@](C)(CCCCN)C(=O)NCC(=O)NCC(N)=O)C(C)C)C(=O)O` [compound 74] (H-H[Aib]EGS[αMeF]TSDV[αMeS]S[αMeF]LEGEAA[αMeK]E[αMeF]IA[αMeF]K([γGlu-Palmitoyl])V[αMeK]GG-NH2): the EC50 in test [1] (setting [4]) was ≥ 28 nM; in test [1] (setting [5]), ≥ 28 nM; at GLP-1R (INS1e assay) (setting [6]) it was 102 pM; at GLP-1R (INS1e assay) (setting [7]) it was 77.4 pM; at GLP-1R (INS1e assay) (setting [8]) it was 127 pM; in test [2] (setting [9]), 2.3 pM. Further, the EC50 in test [3] (setting [12]) and in test [3] (setting [13]) was ≥ 28 nM in each case.
Regarding `CCCCCCCCCCCCCCCC(=O)N[C@@H](CCC(=O)NCCCC[C@H](NC(=O)[C@H](C)NC(=O)[C@@H](NC(=O)[C@](C)(Cc1ccccc1)NC(=O)[C@H](CCC(=O)O)NC(=O)[C@](C)(CCCCN)NC(=O)[C@H](C)NC(=O)[C@H](C)NC(=O)[C@H](CCC(=O)O)NC(=O)CNC(=O)[C@H](CCC(=O)O)NC(=O)[C@H](CC(C)C)NC(=O)[C@](C)(Cc1ccccc1)NC(=O)[C@H](CO)NC(=O)[C@](C)(CO)NC(=O)[C@@H](NC(=O)[C@H](CC(=O)O)NC(=O)[C@H](CO)NC(=O)[C@@H](NC(=O)[C@](C)(Cc1ccccc1)NC(=O)[C@H](CO)NC(=O)CNC(=O)[C@H](CCC(=O)O)NC(=O)C(C)(C)NC(=O)[C@@H](N)Cc1c[nH]cn1)[C@@H](C)O)C(C)C)[C@@H](C)CC)C(=O)N[C@H](C(=O)N[C@H](C(=O)N[C@@](C)(CCCCN)C(=O)NCC(=O)NCC(N)=O)C(C)C)C(C)C)C(=O)O` [compound 75], the EC50 in test [1] (setting [4]) is ≥ 28 nM; in test [1] (setting [5]) it was ≥ 28 nM; at GLP-1R (INS1e assay) (setting [6]), 56 pM; on GLP-1R (INS1e assay) (setting [7]), 49.7 pM; at GLP-1R (INS1e assay) (setting [8]) it was 63 pM; in test [2] (setting [9]), 2 pM. Besides, the EC50 was 1.4 pM in test [2] (setting [10]), 1.7 pM in test [2] (setting [11]), ≥ 28 nM in test [3] (setting [12]) and ≥ 28 nM in test [3] (setting [13]).
On to `CCCCCCCCCCCCCCCC(=O)N[C@@H](CCC(=O)NCCCC[C@H](NC(=O)[C@@H](NC(=O)[C@](C)(Cc1ccccc1)NC(=O)[C@H](CCC(=O)O)NC(=O)[C@](C)(CCCCN)NC(=O)[C@H](C)NC(=O)[C@H](C)NC(=O)[C@H](CCC(=O)O)NC(=O)CNC(=O)[C@H](CCC(=O)O)NC(=O)[C@H](CC(C)C)NC(=O)[C@](C)(Cc1ccccc1)NC(=O)[C@H](CO)NC(=O)[C@](C)(CO)NC(=O)[C@@H](NC(=O)[C@H](CC(=O)O)NC(=O)[C@H](CO)NC(=O)[C@@H](NC(=O)[C@](C)(Cc1ccccc1)NC(=O)[C@H](CO)NC(=O)CNC(=O)[C@H](CCC(=O)O)NC(=O)C(C)(C)NC(=O)[C@@H](N)Cc1c[nH]cn1)[C@@H](C)O)C(C)C)[C@@H](C)CC)C(=O)N[C@@](C)(Cc1ccccc1)C(=O)N[C@H](C(=O)N[C@H](C(=O)N[C@@](C)(CCCCN)C(=O)NCC(=O)NCC(N)=O)C(C)C)C(C)C)C(=O)O` [compound 76] (H-H[Aib]EGS[αMeF]TSDV[αMeS]S[αMeF]LEGEAA[αMeK]E[αMeF]IK([γGlu-Palmitoyl])[αMeF]VV[αMeK]GG-NH2; N-terminus assumed), for which the EC50 in test [1] (setting [4]) is ≥ 27 nM; in test [1] (setting [5]), ≥ 27 nM; on GLP-1R (INS1e assay) (setting [6]), 429 pM; at GLP-1R (INS1e assay) (setting [7]), 326 pM; at GLP-1R (INS1e assay) (setting [8]), 531 pM; in test [2] (setting [9]), 8.4 pM. Also, the EC50 is 6 pM in test [2] (setting [10]), 7.2 pM in test [2] (setting [11]), ≥ 27 nM in test [3] (setting [12]) and ≥ 27 nM in test [3] (setting [13]).
`CCCCCCCCCCCCCCCC(=O)N[C@@H](CCC(=O)NCCCC[C@H](NC(=O)[C@](C)(CCCCN)NC(=O)[C@H](C)NC(=O)[C@H](C)NC(=O)[C@H](CCC(=O)O)NC(=O)CNC(=O)[C@H](CCC(=O)O)NC(=O)[C@H](CC(C)C)NC(=O)[C@](C)(Cc1ccccc1)NC(=O)[C@H](CO)NC(=O)[C@](C)(CO)NC(=O)[C@@H](NC(=O)[C@H](CC(=O)O)NC(=O)[C@H](CO)NC(=O)[C@@H](NC(=O)[C@](C)(Cc1ccccc1)NC(=O)[C@H](CO)NC(=O)CNC(=O)[C@H](CCC(=O)O)NC(=O)C(C)(C)NC(=O)[C@@H](N)Cc1c[nH]cn1)[C@@H](C)O)C(C)C)C(=O)N[C@@](C)(Cc1ccccc1)C(=O)N[C@H](C(=O)N[C@@H](C)C(=O)N[C@@](C)(Cc1ccccc1)C(=O)N[C@H](C(=O)N[C@H](C(=O)N[C@@](C)(CCCCN)C(=O)NCC(=O)NCC(N)=O)C(C)C)C(C)C)[C@@H](C)CC)C(=O)O` [compound 79] (H-H[Aib]EGS[αMeF]TSDV[αMeS]S[αMeF]LEGEAA[αMeK]K([γGlu-Palmitoyl])[αMeF]IA[αMeF]VV[αMeK]GG-NH2): the EC50 is ≥ 28 nM in test [1] (setting [4]); ≥ 28 nM in test [1] (setting [5]); 408 pM at GLP-1R (INS1e assay) (setting [6]); 289 pM at GLP-1R (INS1e assay) (setting [7]); 527 pM on GLP-1R (INS1e assay) (setting [8]); 3.9 pM in test [2] (setting [9]). The EC50 in test [2] (setting [10]) is 2.3 pM; in test [2] (setting [11]), 3.1 pM; in test [3] (setting [12]), ≥ 28 nM; in test [3] (setting [13]), ≥ 28 nM.
